Test results reported in ChEMBL document CHEMBL1201862, “PubChem BioAssay data set” (2004).
Active and inactive are the calls of the source.

What was measured:
[1] = biological target: Large T antigen (Simian virus 40, UniProt P03070); assay type: functional, Betapolyomavirus macacae;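 also: Confirmatory-stage PubChem screen for compounds that inhibit SV40 T antigen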
[2] = biological target: T1, Intestinal-type alkaline phosphatase (Mus musculus, UniProt P24822); test: PubChem AID 488785; assay type: functional
T1 sequence (P24822 whole entry): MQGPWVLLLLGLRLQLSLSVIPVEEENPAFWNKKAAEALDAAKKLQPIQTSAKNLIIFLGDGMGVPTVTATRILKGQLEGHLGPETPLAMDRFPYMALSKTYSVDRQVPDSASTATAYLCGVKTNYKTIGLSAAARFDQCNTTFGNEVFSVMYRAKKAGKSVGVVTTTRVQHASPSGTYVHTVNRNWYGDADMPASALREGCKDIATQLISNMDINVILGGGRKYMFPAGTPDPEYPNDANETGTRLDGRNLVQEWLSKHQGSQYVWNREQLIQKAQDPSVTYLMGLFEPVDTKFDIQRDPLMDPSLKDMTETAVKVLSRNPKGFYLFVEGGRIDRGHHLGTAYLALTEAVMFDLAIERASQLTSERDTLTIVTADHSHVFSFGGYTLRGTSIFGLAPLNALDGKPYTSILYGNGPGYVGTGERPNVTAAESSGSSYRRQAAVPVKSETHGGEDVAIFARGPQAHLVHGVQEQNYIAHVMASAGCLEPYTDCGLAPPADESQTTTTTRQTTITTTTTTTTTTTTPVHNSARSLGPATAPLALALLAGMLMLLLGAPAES

[3] = biological target: T2, Intestinal-type alkaline phosphatase (Homo sapiens, UniProt P09923); test: inhibition of human intestinal alkaline phosphatase – biochemical, dose response (AID 488876); assay type: functional
T2 sequence (P09923 whole entry): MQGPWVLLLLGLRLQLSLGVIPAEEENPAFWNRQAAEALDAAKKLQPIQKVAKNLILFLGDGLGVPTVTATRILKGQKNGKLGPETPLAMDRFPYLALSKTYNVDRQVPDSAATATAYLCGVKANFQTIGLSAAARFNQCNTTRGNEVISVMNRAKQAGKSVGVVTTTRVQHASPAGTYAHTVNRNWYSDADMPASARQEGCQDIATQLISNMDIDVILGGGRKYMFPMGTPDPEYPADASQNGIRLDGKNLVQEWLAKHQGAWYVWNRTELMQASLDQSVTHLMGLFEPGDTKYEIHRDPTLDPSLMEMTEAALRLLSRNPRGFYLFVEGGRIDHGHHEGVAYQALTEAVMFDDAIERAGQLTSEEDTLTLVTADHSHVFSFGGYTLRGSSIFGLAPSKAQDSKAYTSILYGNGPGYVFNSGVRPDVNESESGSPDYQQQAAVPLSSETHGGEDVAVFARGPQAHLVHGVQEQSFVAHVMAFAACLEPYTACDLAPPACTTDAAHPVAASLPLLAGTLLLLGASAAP

[4] = biological target: T3, Alkaline phosphatase, tissue-nonspecific isozyme (Homo sapiens, UniProt P05186); test: TNAP enzyme inhibition by screening hits, dose response, selectivity assay for mouse IAP inhibitor project, biochemical, human TNAP, uHTS hits (AID 488906); assay type: functional
T3 sequence (P05186 whole entry): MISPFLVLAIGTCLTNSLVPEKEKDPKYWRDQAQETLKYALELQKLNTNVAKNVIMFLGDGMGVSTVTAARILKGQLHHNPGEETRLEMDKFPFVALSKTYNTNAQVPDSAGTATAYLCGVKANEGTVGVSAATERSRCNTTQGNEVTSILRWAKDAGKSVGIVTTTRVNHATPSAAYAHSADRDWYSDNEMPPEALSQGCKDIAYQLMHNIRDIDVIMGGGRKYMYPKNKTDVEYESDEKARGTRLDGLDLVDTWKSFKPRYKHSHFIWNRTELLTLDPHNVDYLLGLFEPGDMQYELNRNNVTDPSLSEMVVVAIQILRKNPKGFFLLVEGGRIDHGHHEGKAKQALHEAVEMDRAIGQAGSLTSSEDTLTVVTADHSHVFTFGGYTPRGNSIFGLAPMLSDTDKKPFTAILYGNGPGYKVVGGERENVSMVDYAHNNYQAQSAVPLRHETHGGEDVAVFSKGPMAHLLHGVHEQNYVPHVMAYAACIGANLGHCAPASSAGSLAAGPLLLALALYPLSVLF

[5] = biological target: T4, Serine/threonine-protein phosphatase (Candida dubliniensis (strain CD36 / CBS 7987 / NCPF 3949 / NRRLY-17841) (Yeast), UniProt B9W6M3); test: Fluorescence Cell-Based Secondary Assay to Identify Inhibitors of Calcineurin. [Related pubchem assays (depositor defined):AID1979, AID2007]; assay type: functional
T4 sequence (B9W6M3 whole entry): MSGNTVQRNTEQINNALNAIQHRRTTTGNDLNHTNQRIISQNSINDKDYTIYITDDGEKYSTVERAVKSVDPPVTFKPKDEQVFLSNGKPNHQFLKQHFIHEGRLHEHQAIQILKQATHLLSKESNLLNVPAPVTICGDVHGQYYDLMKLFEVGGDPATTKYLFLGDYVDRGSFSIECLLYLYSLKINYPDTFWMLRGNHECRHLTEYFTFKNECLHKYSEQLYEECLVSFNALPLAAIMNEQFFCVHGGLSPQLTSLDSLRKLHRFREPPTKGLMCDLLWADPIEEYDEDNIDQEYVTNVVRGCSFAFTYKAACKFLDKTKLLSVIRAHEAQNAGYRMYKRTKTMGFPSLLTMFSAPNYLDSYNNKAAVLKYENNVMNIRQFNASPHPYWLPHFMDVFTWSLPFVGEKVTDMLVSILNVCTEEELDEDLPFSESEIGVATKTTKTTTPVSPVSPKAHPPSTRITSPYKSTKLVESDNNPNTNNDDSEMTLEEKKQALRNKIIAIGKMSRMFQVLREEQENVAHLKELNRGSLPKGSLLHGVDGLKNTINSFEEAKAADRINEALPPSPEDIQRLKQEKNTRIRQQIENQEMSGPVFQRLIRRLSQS

[6] = biological target: T5, Mannose-6-phosphate isomerase (Homo sapiens, UniProt P34949); test: human PMI inhibitors, high substrate, primary screen, biochemical, fluorescence intensity, high mannose 6-phosphate (AID 1220)
T5 sequence (P34949 whole entry): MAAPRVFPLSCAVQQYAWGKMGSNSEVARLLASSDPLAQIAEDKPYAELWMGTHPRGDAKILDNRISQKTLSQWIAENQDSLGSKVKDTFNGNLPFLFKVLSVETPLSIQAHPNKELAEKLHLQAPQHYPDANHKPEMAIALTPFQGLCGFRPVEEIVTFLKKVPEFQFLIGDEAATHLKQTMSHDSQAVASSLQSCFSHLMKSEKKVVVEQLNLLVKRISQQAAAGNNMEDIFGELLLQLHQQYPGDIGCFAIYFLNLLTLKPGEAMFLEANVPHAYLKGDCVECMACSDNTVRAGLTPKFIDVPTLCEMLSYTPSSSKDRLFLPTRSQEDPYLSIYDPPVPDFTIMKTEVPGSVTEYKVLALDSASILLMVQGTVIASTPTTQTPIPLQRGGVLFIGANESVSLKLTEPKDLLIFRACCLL

[7] = biological target: Eukaryotic translation initiation factor 4E (Mus musculus, UniProt P63073); test: eIF4E–eIF4G protein interaction inhibitors, dose response, biochemical, TR-FRET (AID 855); assay type: functional;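 also: potency for disrupting eIF4E binding to eIF4GI seen as loss of FRET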
Eukaryotic translation initiation factor 4E, sequence (P63073 whole entry): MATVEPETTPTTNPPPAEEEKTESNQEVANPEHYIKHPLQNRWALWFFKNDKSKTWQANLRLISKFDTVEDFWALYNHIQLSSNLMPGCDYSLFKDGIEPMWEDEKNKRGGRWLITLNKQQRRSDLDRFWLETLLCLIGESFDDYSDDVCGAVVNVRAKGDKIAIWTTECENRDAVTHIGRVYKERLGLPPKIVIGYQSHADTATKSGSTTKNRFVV

[8] = biological target: Phosphomannomutase 2 (Homo sapiens, UniProt O15305); test: Counter screen SAR assay for PMM2 inhibitors via a fluorescence intensity assay. [Related pubchem assays (depositor defined):AID1545, AID1574]
Phosphomannomutase 2, sequence (O15305 whole entry): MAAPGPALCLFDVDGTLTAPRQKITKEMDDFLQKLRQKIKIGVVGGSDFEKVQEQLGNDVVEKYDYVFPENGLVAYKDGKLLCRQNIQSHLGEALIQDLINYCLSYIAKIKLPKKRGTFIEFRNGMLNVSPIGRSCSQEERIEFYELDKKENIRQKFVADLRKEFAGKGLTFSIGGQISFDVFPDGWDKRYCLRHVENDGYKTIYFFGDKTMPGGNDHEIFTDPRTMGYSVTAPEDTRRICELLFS

[9] = biological target: T5, Mannose-6-phosphate isomerase; test: PMI enzyme inhibitors, confirmation, biochemical, fluorescence intensity (AID 1535)
[10] = biological target: T6, Delta-type opioid receptor (Homo sapiens, UniProt P41143); test: DOR antagonists, SAR follow-up, image-based (AID 2357); assay type: functional
T6 sequence (P41143 whole entry): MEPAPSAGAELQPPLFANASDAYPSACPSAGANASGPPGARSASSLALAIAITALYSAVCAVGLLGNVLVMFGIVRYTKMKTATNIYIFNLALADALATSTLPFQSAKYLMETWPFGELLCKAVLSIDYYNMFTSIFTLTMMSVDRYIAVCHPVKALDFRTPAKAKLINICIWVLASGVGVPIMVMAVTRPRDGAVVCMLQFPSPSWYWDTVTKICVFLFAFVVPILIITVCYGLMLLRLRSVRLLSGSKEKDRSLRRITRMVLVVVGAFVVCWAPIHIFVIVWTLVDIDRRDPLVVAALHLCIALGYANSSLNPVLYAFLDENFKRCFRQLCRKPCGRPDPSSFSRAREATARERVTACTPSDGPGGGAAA

[11] = biological target: T6, Delta-type opioid receptor; test: DOR agonists, SAR follow-up, image-based (AID 2370); assay type: functional
[12] = biological target: T7, Kappa-type opioid receptor (Homo sapiens, UniProt P41145); test: SAR analysis of small molecule agonists of the kappa opioid receptor via a luminescent beta-arrestin assay. [Related pubchem assays (depositor defined):AID1777, AID1786, AID1966, AID2133, AID2136, AID2348, AID2352, AID2357, AID2359, AID2370, AID2420, AID2478, AID2491, AID2492, AID2493, AID2497, AID2498, AID2500, AID449737, AID488822, AID488842]; assay type: functional
T7 sequence (P41145 whole entry): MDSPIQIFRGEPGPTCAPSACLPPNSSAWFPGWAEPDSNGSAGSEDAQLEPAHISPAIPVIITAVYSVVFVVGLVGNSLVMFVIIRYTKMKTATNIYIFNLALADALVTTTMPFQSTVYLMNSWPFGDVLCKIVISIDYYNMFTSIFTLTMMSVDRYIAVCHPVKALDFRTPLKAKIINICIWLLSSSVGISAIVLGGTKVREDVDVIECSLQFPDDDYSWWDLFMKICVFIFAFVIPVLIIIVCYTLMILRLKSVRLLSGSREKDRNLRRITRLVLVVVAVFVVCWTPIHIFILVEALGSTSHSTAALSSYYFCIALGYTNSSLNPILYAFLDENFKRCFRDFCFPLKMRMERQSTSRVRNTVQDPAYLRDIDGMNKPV

[13] = biological target: T8, Mu-type opioid receptor (Homo sapiens, UniProt P35372); test: MOR antagonists, SAR follow-up, image-based (AID 2420); assay type: functional;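 also: compounds added before stimulation of receptor with agonist DAMGO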
T8 sequence (P35372 whole entry): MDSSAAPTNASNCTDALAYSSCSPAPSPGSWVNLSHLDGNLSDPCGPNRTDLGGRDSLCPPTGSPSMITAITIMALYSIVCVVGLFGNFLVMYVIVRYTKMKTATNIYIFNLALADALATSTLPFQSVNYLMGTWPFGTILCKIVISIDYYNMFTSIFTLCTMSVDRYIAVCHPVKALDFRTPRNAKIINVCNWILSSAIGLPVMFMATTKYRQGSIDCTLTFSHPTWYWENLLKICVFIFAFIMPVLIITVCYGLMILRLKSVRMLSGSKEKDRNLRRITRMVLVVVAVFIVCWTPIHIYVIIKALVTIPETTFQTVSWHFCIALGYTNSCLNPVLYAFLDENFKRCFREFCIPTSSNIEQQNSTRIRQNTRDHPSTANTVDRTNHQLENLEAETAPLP

[14] = biological target: T8, Mu-type opioid receptor; test: MOR agonists by imaging, SAR follow-up, image-based (AID 2352); assay type: functional
[15] = biological target: T7, Kappa-type opioid receptor; test: KOR antagonists by imaging, SAR follow-up, image-based (AID 2348); assay type: functional
[16] = biological target: T7, Kappa-type opioid receptor; test: KOR agonist analogs, imaging readout, SAR follow-up, image-based (AID 2359); assay type: functional
[17] = biological target: T3, Alkaline phosphatase, tissue-nonspecific isozyme; test: TNAP enzyme activators, dose response, selectivity assay for human IAP activator project, biochemical, TNAP isozyme, human IAP uHTS hits (AID 488886); assay type: functional;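 also: potency of compounds raising TNAP activity as a selectivity check on IAP activators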
[18] = biological target: T2, Intestinal-type alkaline phosphatase; test: human intestinal alkaline phosphatase activators, dose response, biochemical, luminescence, uHTS hits (AID 463120); assay type: functional
[19] = biological target: T2, Intestinal-type alkaline phosphatase; test: human IAP activators, dose response, biochemical, luminescent, uHTS hits, set 2 (AID 488817); assay type: functional;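 also: potency of activators that raise enzyme activity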
[20] = biological target: T1, Intestinal-type alkaline phosphatase; test: PubChem AID 488874; assay type: functional
[21] = biological target: DNA (cytosine-5)-methyltransferase 1 (Homo sapiens, UniProt P26358); test: DNMT1 methyltransferase inhibitors, confirmation, biochemical, fluorescent molecular beacon (AID 602386); assay type: functional
[22] = biological target: T9, Small ubiquitin-related modifier 1 (Homo sapiens, UniProt P63165); test: inhibitors of SUMO1 partner interactions, dose response, biochemical, FRET (AID 624383); assay type: functional; details: read-out: IC50_Mean
T9 sequence (P63165 whole entry): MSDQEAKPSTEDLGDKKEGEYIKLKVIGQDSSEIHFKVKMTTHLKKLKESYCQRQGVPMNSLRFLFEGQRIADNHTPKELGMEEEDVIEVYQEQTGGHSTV

[23] = biological target: T10, Voltage-gated N-type calcium channel alpha-1B subunit/Amyloid beta A4 precursor protein-binding family A member 1 (Homo sapiens, UniProt Q00975+Q02410); assay type: protein assay
[24] = biological target: T9, Small ubiquitin-related modifier 1; test: inhibitors of SUMO1 peptide binding, dose response, biochemical, fluorescence polarization, uHTS hits (AID 624382); assay type: functional; details: read-out: IC50_Mean
[25] = biological target: T10, Voltage-gated N-type calcium channel alpha-1B subunit/Amyloid beta A4 precursor protein-binding family A member 1; assay type: protein assay; remark: listed apart in the source
[26] = biological target: Induced myeloid leukemia cell differentiation protein Mcl-1 (Homo sapiens, UniProt Q07820); assay type: functional
Induced myeloid leukemia cell differentiation protein Mcl-1, sequence (Q07820 whole entry): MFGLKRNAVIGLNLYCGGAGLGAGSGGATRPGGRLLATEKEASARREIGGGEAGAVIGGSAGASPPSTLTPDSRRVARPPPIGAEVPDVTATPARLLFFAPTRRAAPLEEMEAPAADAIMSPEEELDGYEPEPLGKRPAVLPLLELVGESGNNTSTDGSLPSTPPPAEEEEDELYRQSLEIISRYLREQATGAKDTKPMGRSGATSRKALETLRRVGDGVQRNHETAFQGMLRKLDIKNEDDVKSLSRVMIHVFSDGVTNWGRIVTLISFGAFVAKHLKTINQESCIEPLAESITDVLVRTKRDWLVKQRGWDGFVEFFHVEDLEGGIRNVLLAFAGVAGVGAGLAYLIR

[27] = biological target: T11, Apoptotic protease-activating factor 1 (Homo sapiens, UniProt O14727); test: activation of Apaf-1 mediated apoptosis – fluorescent, uHTS hits, dose response (AID 588554); assay type: functional
T11 sequence (O14727 whole entry): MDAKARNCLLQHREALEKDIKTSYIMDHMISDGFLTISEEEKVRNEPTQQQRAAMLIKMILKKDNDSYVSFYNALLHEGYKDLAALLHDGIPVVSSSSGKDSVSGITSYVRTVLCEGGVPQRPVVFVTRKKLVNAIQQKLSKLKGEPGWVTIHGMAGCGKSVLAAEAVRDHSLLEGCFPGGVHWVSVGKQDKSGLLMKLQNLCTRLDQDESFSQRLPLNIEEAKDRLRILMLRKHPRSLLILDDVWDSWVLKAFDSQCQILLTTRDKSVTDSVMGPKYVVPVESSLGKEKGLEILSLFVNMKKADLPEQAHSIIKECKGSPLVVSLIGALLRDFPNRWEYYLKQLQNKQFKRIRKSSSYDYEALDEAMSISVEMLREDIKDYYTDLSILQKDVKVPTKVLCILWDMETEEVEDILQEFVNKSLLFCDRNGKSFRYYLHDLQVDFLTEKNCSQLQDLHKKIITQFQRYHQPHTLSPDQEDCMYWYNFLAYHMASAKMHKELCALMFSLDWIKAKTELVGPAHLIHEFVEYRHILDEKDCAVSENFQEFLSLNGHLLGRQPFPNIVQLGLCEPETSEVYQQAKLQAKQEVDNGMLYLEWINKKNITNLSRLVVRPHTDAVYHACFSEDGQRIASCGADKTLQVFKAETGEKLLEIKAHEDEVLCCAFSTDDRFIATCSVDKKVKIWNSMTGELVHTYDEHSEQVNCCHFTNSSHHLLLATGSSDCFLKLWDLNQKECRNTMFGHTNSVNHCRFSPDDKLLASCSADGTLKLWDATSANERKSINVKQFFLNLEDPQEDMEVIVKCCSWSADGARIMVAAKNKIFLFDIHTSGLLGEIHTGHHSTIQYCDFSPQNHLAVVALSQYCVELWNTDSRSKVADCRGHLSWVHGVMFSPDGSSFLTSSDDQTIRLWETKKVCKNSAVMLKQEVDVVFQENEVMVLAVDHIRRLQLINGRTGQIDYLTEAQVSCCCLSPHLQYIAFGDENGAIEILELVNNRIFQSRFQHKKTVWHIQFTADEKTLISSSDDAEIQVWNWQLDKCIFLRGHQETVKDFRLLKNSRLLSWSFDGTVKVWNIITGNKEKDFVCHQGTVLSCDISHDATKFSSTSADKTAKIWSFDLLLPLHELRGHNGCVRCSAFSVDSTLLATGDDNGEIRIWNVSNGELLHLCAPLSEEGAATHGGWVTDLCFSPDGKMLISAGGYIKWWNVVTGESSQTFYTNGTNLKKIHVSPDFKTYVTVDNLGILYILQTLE

[28] = biological target: T12, Carboxy-terminal domain RNA polymerase II polypeptide A small phosphatase 1 (Homo sapiens, UniProt Q9GZU7); test: inhibitors of CTDSP1, concentration-response testing, biochemical assay, absorbance-based, actives from ultra-high-throughput screening (AID 540297); assay type: functional
T12 sequence (Q9GZU7 whole entry): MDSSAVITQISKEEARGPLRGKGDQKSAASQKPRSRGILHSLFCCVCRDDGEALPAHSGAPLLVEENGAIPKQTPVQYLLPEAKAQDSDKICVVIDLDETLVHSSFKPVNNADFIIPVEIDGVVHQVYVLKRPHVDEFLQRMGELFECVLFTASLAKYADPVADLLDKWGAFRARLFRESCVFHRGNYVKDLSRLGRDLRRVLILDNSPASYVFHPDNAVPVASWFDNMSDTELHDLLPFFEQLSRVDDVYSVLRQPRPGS

Large T antigen, sequence (P03070 whole entry): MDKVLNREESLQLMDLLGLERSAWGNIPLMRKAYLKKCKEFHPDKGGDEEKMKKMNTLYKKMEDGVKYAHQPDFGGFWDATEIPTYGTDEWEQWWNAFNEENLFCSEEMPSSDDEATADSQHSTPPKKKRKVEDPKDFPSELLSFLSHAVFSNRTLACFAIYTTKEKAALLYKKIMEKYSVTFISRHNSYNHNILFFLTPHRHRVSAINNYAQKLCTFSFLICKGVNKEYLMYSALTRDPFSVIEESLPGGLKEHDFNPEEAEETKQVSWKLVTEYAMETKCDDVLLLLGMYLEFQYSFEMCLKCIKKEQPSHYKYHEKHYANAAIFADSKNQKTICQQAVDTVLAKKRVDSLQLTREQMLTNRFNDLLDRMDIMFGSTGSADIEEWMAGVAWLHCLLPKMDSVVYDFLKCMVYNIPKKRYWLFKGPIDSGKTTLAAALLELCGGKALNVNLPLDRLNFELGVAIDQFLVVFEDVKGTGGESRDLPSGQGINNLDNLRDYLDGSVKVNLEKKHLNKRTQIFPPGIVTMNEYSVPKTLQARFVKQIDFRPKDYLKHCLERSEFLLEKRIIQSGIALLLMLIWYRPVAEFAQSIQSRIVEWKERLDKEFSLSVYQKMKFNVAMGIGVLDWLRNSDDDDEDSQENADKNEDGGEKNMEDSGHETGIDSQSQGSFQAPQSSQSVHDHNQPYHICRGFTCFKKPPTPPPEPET

Compound: Oc1cc(O)c2c(c1)OC(c1ccc(O)c(O)c1)C(O)C2 (stereo not drawn)
- IC50 [1]: 8.64 µM (active)
- IC50 [2]: 24.1 µM (active)
- IC50 [3]: > 100 µM (inactive)
- IC50 [4]: > 100 µM (inactive)

Compound: Nc1nccnc1C(=O)Nc1nnc(SCc2ccc(Cl)cc2)s1
- EC50 [5]: > 285 µM (inactive)

Compound: COc1cc(/N=c2\ssnc2Cl)c(OC)cc1Cl
- IC50 [6]: 6.24 µM (active)
- IC50 [7]: 15.2 µM (active)
- IC50 [8]: 97.3 µM (active)
- IC50 [9]: 3.12 µM (active)

Compound: COc1ccc(CC2(CO)CCN(Cc3nccn3-c3cccc(C)c3)CC2)cc1
- IC50 [10]: > 32 µM (inactive)
- EC50 [11]: > 32 µM (inactive)
- EC50 [12]: > 10 µM (inactive)
- IC50 [13]: > 32 µM (inactive)
- EC50 [14]: > 32 µM (inactive)
- IC50 [15]: > 32 µM (inactive)
- EC50 [16]: > 32 µM (inactive)

Compound: Cc1nc2c3ccccc3nc(NNC(=O)CCC(=O)NCCC(C)C)n2n1
- EC50 [17]: 12.5 µM (active)
- EC50 [18]: 7.93 µM (active)
- EC50 [19]: 19.2 µM (active)
- IC50 [20]: 50.4 µM (active)

Compound: C=C(C)C(=O)Nc1cccc(C2=NOC3(C2)C[C@@H](C(N)=O)N(C(=O)/C(C)=C/C)C3)c1 (stereo partly drawn)
- IC50 [21]: 1.94 µM (active)
- IC50 [22]: 0.869 µM (active)
- IC50 [23]: 17.7 µM (active)
- IC50 [24]: > 66.6 µM (inactive)
- IC50 [25]: > 50 µM (inactive)
- IC50 [26]: 23.6 µM (not active)
- EC50 [27]: 1.69 µM (active)
- IC50 [28]: 0.54 µM (active)
